Results on 1 substance are retold here after patent publication US20100041603A1, “Method of Promoting Wound Healing” (Corthera, Inc., priority 2008, published 2010).

Entries after “also recorded” stand apart in the source; their conditions may differ.

In one data set the test system is wounded sites. As to conditions: systemic relaxin administration in rats; cited from earlier work.
For data set [1], the system named is 20×6 mm incisional wounds on the back. Kind of data set: Porcine skin wound study (incisional wounds, six weeks). It is filed as in vivo, juvenile pigs. Particulars: dose range 10-960 μg/kg/day.
Data set [2] in a line: Canine gingiva study: RLX migration and degradation after gingival injection (SELDI-TOF MS). As to conditions: for RLX detection in gingiva away from the site of injection: 1 hr time point; for concentration of H2 RLX detected in treated dog gingiva: site of injection. It is filed as in vivo, dog. On the procedure:
The aim of this study was to determine the rate of RLX migration and extent of degradation after gingival injections. […] Employing a dog model, RLX was administered and tissue punch biopsies were collected at the site of injection and 0.5, 1 and 2 cm from the site of injection. Tissue was collected at several time points including 1, 2 and 4 hrs after injection. Protein was extracted from the gingival biopsies and analysed via ProteinChip technology (Surface Enhanced Laser Desorption/Ionization Time-of-Flight Mass Spectrometry, SELDI-TOF MS), which combines two well-established methods of solid phase chromatography and TOF-MS into an integrated platform. ProteinChip arrays were coated with anti-H2 RLX Ab, allowing the specific capture of RLX and associated breakdown/modified products.
Design of Drug. Gingival injections were administered (25 μg H2 RLX/100 μl, 41 μM) and tissue was collected at several positions including the site of injection and 0.5, 1 and 2 cm from the site of injection. Tissue was collected 1, 2 and 3 hrs after injection.
a) Protein Extraction and Quantitation. Frozen gingival biopsies were homogenized in extraction buffer (10 μl/mg tissue) containing 10 mM Tris-HCl, 10 mM NaCl, 0.1% TFA and protease inhibitor (complete mini, Roche). The extract was centrifuged (6000×g) for 10 min and the supernatant was collected, aliquoted and stored at −80° C. Total protein concentration was determined using the Bradford assay. Protein concentrations ranged from 1.4 mg/ml to 2.8 mg/ml, all samples were standardized to 1.4 mg/ml in extraction buffer.
b) SELDI-TOF MS analysis—Analysis of RLX treated gingiva on PG20 arrays. Anti-H2 RLX Ab ([…]/0.25 mg/ml; Genentech) or control IgG (Ciphergen Biosystems) was applied to each spot of a PS20 array which had been pre-coated with Protein G (Ciphergen Biosystems). After antibody binding, the chip was washed once with PBS/0.5% Triton X-100 for 5 min with agitation (5 μl per spot), followed by two PBS washes. Dog gingiva extracts (3 μl/1.4 mg/ml) were applied to each spot and incubated for 4 hrs. Non-specifically bound proteins were removed by sequentially washing with PBS/0.5% Triton X-100, PBS and 1 mM HEPES, pH 7.2. The chips were air dried and 1 μl of 50% saturated sinapinic acid in 50% (v/v) acetonitrile, 0.5% trifluoroacetic acid was applied onto each spot twice, arrays were air dried between each application. Chips were subsequently analysed by SELDI-TOF MS (Ciphergen Biosystems) using the following settings, laser 220 and sensitivity 9.
c) Generation of H2 RLX Std Curve on PG20 arrays. H2 RLX (batch number 11835-89) was spiked into control dog gingiva (1.4 mg/ml) at different concentrations, including 100 nM, 50 nM, 12.5 nM, 6.25 nM, 3.125 nM and 1.56 nM and analysed as described above.
Findings. In order to quantitate the levels of RLX in the treated gingiva samples a H2 RLX standard curve was generated. The linear dynamic range was determined to be two orders of magnitude with a R^2 value of 0.9495.

For data set [3], the system named is 20×6 mm incisional wounds on the back. Kind of data set: Porcine skin wound study (incisional wounds, six weeks). It is filed as in vivo, juvenile pigs. The text has this: Overview of the Animal Study. In selecting the appropriate animal for this study, a pig was selected because of the anatomical similarities between pig skin and human skin. In fact, pig wound healing has been used in numerous studies to simulate human skin (Sullivan et al., Wound Repair Regen. 9: 66-76, 2001).
Design of Study. In this study, juvenile pigs were oriented with twelve wound sites per animal—20×6 mm incisional wounds on the back—over the course of a six week study (see FIG. 2). Systemic relaxin was delivered via mini-pumps to achieve 20 ng/mL serum concentrations. Topical formulations were prepared by Dow Pharma, and consisted of propylene glycol and ethanol, which contributed to good long term stability of the therapeutic agent. Dosages consisting of placebo, 0.5 mg/mL (low dose), and 2.5 mg/mL (high dose) were prepared. The goals of the study were to assess the safety of topical relaxin on wound healing and to determine the efficacy of relaxin as a treatment for wound healing and/or scar formation. During the first week, irrigation was performed once daily. During weeks 2-3, topical formulation was applied twice daily, and during weeks […], topical formulation was applied once daily.
Design of Drug The study drug was relaxin (produced by recombinant technology). Recombinant relaxin is identical to the native human hormone H2 relaxin, produced using a recombinant single chain process. The active test article may be aseptically diluted to the desired concentration with the acetate diluent (20 mM sodium acetate, pH 5.0).
Study Procedures. Referring to FIG. 3 which depicts the back of a pig with incisions according to the experimental design described herein at the completion of six weeks, the wound in Section 3 was irrigated with relaxin construct during the first week, and subsequently treated with high dose topical relaxin formulation during weeks 2-6 as described above. Sections 4, 5, and 6 received no irrigation during week 1. Section 4 was treated with placebo. Section 5 was treated with low dose topical formulation, and Section 6 was treated with high dose topical formulation.
Cosmetic appearance of skin. Visual rankings of wound pictures were conducted by neutral observers who evaluated scabs during early wound healing (days 5-7) and scars at the end of the study (see FIG. 4). […] The results of this visual wound assessment determined that 89% of the time a relaxin treatment group was selected in the top three. Only 11% of the time, a group not treated with relaxin was selected in the top three.
A cosmetic score was also determined by a professional dermatologist at weeks 2, 4, and 6. The cosmetic score has five components: (1) color—matching with surrounding skin; (2) texture—no hardness; (3) distortion—no distortion of nearby skin; (4) contour—flush with surrounding skin; (5) global—no hypertrophy or keloid formation. During this dermatological assessment, evaluation at time 2 weeks was obscured by scabs, so the data for cosmetic scores was collected from evaluation at weeks 4 and 6 (see FIG. 5). […] In the bottom profile, the scar is visible.
Histological evaluation. A professional histopathologist evaluated the pathology of the treatments for such indications as granulation, inflammation, and necrosis. In judging granulation tissue, it is considered that early response to wound includes invasion of the site by fibroblasts, inflammatory cells, and new blood vessels. Over time, this resolves to more normal tissue as the site heals. Chronic inflammation characterized by the presence of macrophages, giant cells, lymphocytes, and PMNs indicated adverse reaction. Minor factors such as keratosis (formation of keratin layer outside the epidermis) and acanthosis (thickening of the epidermal layer) are also considered. […]

The mark [4] stands for this setting: systemic relaxin vs wounds not receiving systemic relaxin.
Setting [5] is: systemic relaxin, six weeks, blinded assessments.

In the case of “relaxin: Recombinant relaxin identical to the native human hormone H2 relaxin, produced using a recombinant single chain process”, the “VEGF and bFGF transcripts at wounded sites” value with wounded sites is given as “upregulation”. Besides, the “new blood vessel formation at wounded sites” value in the data set on wounded sites is “increased new blood vessel formation”. Further, the “adverse effects and tolerability over dose range” value in data set [1] is on record as “no relevant adverse effects; also recorded: well-tolerated”. The entries for the “RLX detection in gingiva away from the site of injection” value in data set [2] (0.5 cm from site of injection), in data set [2] (1 cm from site of injection) and in data set [2] (2 cm from site of injection) were “detected”, “not detected” and “not detected”, respectively. Moreover, the “RLX detection in gingiva” value in data set [2] (remaining time points (2 and 4 hrs)) was “only detected at the site of injection”. In addition, the “concentration of H2 RLX detected in treated dog gingiva” value in data set [2] (1 hr after gingival injection (25 μg H2 RLX/100 μl)) was 90 nM; in data set [2] (2 hrs after gingival injection) it was 78 nM; in data set [2] (4 hrs after gingival injection), 21 nM. Further, the “blood vessels / redness in the wound site” value in data set [3] (after about six weeks of treatment) was “overall reduction in blood vessels; also recorded: significantly less redness”. Further, the “wound appearance compared to control pig” value in data set [3] (after day six, systemic relaxin) was “healed faster, better”. The “visual wound assessment: share of times a relaxin treatment group was selected in the top three” value in data set [3] (blinded neutral observers ranking the best three of six groups of wound pictures) worked out at 89%. In data set [3] (dermatologist cosmetic score, weeks 4 and 6, irrigation relaxin treatment vs only topical relaxin treatment), the “cosmetic ranking of wound/scar areas, irrigation vs topical only” value is given as “ranked higher overall”. Also, in data set [3] (pig, in vivo), the “adverse effects associated with relaxin treatment (histopathology)” value is recorded as “no adverse effects”. For the same substance, the “necrosis or inflammation associated with relaxin treatment” value in data set [3] (pig, in vivo) is reported as “no necrosis or inflammation”. In data set [3] (six weeks of treatment, systemic relaxin vs placebo), the “scar visibility at wound site” value is recorded as “the scar is invisible; also recorded: no scar was visible”. In data set [3] (six weeks, relaxin treatment vs no relaxin treatment (severe scarring)), the “scarring on histopathological slide” value is “mild scarring”. Moreover, the “collagen organization (objective collagen scoring system, redness ratio)” value in data set [3] (setting [4]) is given as “significantly better collagen organization”. Also, in data set [3] (setting [4]), the “composite wound healing score (three point scale, collagen appearance)” value is “significantly improved”. Further, the “chronic inflammation in wound sites (histology score)” value in data set [3] (setting [5]) is recorded as “significantly reduced”. In addition, the “granulation tissue in wound sites (histology score)” value in data set [3] (setting [5]) was “significantly reduced”. The “wound healing, systemic vs topical administration” value in data set [3] (systemic treatment compared to topical administration) was “better wound healing”. In addition, the “wound healing compared to placebo” value in data set [3] (topical-only treatment (low and high dose, sections 5 and 6 vs section 4), six weeks) is listed as “improved wound healing”.
